ChEMBL document CHEMBL1201862, “PubChem BioAssay data set” (2004)
Activity calls are given as the source filed them.

How the values were obtained:
[1] = target: T1, ORF 73 (Human herpesvirus 8, UniProt O40947); assay: inhibitors of C-LANA binding to LBS DNA, dose response, biochemical, fluorescence polarization, cherry-picked samples (AID 504725); parameters: species or system Human gammaherpesvirus 8;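 note: fluorescence polarization of a labeled DNA duplex reporting LANA DNA binding; potency is for inhibitors that block LANA binding to the DNA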
T1 sequence (O40947 whole entry): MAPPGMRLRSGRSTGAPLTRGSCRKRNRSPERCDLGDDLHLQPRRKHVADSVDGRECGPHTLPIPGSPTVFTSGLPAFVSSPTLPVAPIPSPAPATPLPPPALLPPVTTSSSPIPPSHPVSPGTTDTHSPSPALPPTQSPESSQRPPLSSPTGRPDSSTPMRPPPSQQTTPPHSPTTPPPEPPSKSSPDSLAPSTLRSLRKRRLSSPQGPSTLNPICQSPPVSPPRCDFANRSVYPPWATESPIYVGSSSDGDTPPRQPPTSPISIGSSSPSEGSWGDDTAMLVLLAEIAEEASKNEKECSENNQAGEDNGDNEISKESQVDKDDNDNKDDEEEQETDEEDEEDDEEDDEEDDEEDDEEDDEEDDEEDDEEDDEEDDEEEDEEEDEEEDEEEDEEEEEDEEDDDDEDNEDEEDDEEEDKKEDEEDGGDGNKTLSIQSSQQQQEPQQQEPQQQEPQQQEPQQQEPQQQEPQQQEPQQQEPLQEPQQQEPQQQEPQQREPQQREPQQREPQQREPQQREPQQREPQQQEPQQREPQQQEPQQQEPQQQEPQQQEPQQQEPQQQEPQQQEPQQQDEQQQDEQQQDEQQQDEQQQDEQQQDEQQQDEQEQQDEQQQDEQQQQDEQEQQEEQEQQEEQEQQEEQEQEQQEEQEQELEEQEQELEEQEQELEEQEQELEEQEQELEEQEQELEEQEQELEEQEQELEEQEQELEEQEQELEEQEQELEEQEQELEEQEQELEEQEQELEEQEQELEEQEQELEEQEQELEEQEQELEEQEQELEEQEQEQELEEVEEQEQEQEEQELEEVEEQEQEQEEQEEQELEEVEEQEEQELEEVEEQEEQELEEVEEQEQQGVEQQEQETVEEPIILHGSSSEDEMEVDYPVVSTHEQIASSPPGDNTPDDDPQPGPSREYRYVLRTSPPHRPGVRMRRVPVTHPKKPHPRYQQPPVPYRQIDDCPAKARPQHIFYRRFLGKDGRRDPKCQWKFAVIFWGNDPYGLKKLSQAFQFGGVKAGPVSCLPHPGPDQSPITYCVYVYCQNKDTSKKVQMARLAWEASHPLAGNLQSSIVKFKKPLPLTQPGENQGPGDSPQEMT

[2] = target: T2, Protein RecA (Mycobacterium tuberculosis, UniProt P9WHJ3); assay: Fluorescence Cell-Free Homogeneous Dose Retest to Identify Inhibitors of RecA-Intein Splicing Activity. [Related pubchem assays (depositor defined):AID2097, AID2223, AID489010, AID492950]; format: functional
T2 sequence (P9WHJ3 whole entry): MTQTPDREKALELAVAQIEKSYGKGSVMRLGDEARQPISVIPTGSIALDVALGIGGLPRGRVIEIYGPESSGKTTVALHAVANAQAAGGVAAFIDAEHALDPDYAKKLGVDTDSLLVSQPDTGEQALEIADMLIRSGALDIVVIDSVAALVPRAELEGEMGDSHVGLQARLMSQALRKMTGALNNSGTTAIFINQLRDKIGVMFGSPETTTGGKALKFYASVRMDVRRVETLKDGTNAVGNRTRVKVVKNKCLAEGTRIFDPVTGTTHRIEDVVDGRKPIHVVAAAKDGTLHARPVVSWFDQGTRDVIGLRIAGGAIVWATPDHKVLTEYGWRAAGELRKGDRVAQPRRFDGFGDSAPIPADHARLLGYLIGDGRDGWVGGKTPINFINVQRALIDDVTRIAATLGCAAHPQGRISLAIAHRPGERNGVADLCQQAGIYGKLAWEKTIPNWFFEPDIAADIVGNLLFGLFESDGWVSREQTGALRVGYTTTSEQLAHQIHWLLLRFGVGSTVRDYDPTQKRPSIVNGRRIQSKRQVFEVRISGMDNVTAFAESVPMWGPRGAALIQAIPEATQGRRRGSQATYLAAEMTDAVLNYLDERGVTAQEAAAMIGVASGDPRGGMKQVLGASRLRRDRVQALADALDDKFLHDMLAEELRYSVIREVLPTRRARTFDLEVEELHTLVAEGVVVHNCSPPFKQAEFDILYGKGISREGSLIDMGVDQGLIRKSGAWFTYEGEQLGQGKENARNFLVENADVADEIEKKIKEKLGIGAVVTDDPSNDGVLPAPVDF

[3] = target: T3, Replicative DNA helicase DnaB (Mycobacterium tuberculosis, UniProt P9WMR3); assay: DnaB intein splicing inhibitors, dose response, biochemical, cell-free fluorescence (AID 449749); format: functional
T3 sequence (P9WMR3 whole entry): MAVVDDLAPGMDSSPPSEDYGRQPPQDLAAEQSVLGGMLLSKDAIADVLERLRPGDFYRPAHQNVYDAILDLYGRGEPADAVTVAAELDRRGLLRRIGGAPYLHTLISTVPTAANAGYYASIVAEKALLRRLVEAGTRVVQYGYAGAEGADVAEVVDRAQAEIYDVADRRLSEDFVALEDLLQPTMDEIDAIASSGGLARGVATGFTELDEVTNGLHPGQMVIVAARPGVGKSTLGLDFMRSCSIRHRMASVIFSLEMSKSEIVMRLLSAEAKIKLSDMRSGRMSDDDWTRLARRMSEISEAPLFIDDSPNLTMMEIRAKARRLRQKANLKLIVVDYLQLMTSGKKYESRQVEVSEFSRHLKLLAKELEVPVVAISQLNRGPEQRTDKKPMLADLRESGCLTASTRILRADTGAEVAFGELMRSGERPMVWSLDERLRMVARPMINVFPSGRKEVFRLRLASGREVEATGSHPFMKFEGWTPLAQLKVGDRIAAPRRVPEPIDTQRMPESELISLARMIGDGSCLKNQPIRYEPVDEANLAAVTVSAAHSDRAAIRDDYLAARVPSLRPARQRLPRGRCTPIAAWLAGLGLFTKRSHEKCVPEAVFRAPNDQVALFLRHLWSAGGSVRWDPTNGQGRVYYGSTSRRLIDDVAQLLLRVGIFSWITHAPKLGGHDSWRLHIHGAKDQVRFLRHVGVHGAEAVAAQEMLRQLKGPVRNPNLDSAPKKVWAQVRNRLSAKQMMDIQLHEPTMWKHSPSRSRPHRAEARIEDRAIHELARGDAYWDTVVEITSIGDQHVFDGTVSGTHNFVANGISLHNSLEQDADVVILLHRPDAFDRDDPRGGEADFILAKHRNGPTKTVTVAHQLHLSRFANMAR

| SMILES | AC50 [1] | EC50 [2] | AC50 [3] |
| --- | --- | --- | --- |
| CCN(CC)CCN1C(=O)c2cccc3cc(N)cc(c23)C1=O | 17.1 µM (active) | 0.209 µM (active) | 0.272 µM (active) |
| O=C(O)c1cccc(-n2cccc2/C=C2/NC(=O)N(c3ccc(Cl)cc3)C2=O)c1 | 23.3 µM (active) | – | – |
| C=C1C(=O)O[C@@H]2C[C@@H](C)[C@@H]3C=CC(=O)[C@@]3(C)[C@@H](OC(=O)CC(=O)O[C@H]3[C@@H]4C(=C)C(=O)O[C@@H]4C[C@@H](C)[C@@H]4C=CC(=O)[C@]43C)[C@H]12 | – | 46 µM (active) | 111 µM (active) |
| O=S(=O)(O)c1cc(Cl)cc(N=Nc2ccc(O)cc2O)c1O | 70.2 µM (active) | – | – |
